# Results as given in patent publication US20190209682A1, “ISOFORM-SPECIFIC, CONTEXT-PERMISSIVE TGFB1 INHIBITORS AND USE THEREOF” (Scholar Rock, Inc., priority 2017, published 2019).
# How the values were obtained:
# [1] = Rat toxicity study, Phase II; format: in vivo
# [2] = system: tonic SMAD2/3 signaling in BAL cells; assay: Pharmacodynamics, tonic phospho-SMAD2/3 in BAL cells of healthy rats; format: in vivo, rat; conditions: single oral gavage dose 100 mg/kg, 2 hours post-dosing
# Method: To confirm isoform-selective inhibition of TGFβ1 in vivo, a pharmacodynamics study was conducted in which effects of Ab3 on tonic phospho-SMAD2/3 levels were assessed in bronchoalveolar lavage (BAL) cells collected from healthy rats. It is reported in the literature that under homeostatic conditions, BAL cells predominantly express TGFβ2/3, but little TGFβ1, while the latter becomes preferentially elevated in pathologic conditions.
# Healthy Sprague Dawley rats (approximately 6-8 weeks old, weighing 200-250 g at the beginning of the study; Charles River) were randomized by bodyweight into study groups and dosed as described below.
# Animals received test antibodies (huNEG-mIgG1, […], or Ab3) on Days 1, 8, and 15 by intraperitoneal injection. Animals are euthanized on Day 16 for BAL and serum collections. One group of control animals was dosed with a single oral gavage (PO) dose of LY2109761 (small molecule ALK5 inhibitor) at 100 mg/kg and was euthanized at 2 hours (+/−20 min) post-dosing for BAL collections.
# To collect BAL samples, the whole lung was lavaged three times with 5.0 mL of ice-cold Dulbecco's phosphate buffered saline. […]
# Phospho-SMAD2/3 assays were performed by ELISA (Cell Signaling Technologies) according to the manufacturer's instructions. Results were assessed by phosphorylated-to-total SMAD2/3 ratios.
# [3] = Rat toxicity study, Phase I; conditions: for Aortic root: Hemorrhage, Minimal / Aortic root: Infiltrate, mixed cell, Minimal / Atrium: Hemorrhage, Minimal / Atrium: Hyperplasia, endothelium, Minimal / Atrium: Infiltrate, mixed cell, Minimal / Atrium: Infiltrate, mixed cell, Slight / Coronary artery: Necrosis with inflammation, Slight / Heart valves: Valvulopathy, Minimal / Heart valves: Valvulopathy, Moderate / Heart valves: Valvulopathy, Slight / Myocardium: Degeneration/necrosis, Minimal / Myocardium: Degeneration/necrosis, Slight / Myocardium: Hemorrhage, Slight / Myocardium: Infiltrate, mixed cell, Slight: incidence
# Method: Animal body weight was determined at days 1, 3, and 7 of the dosing phase. Animals were sacrificed at day 8 and necropsies performed.
# [4] = 200 mg/kg oral gavage once daily for five days
smiles,measurement,setting,value
c1ccc(-c2nn3c(c2-c2ccnc4cc(OCCN5CCOCC5)ccc24)CCC3)nc1 [LY2109761],Heart weights,[1]; 200 mg/kg,increased heart weights
same,Liver weights,[1]; 200 mg/kg,Increased liver weights
same,Thymus weights,[1]; 200 mg/kg,decreased thymus weights
same,Thyroid weights,[1]; 200 mg/kg,increased thyroid weights
same,Uterus weights,[1]; 200 mg/kg,decreased uterus weights
same,Heart findings,[1]; [4],test article-related heart findings occurred
same,"Microscopic findings in bones, liver, pancreas (artery), thymus, thyroid, female reproductive tissues, mammary gland",[1]; [4],microscopic findings occurred
same,Tonic SMAD2/3 signaling (phosphorylated-to-total SMAD2/3 ratio),[2],significantly suppressed
same,Animals found dead at day 7,"[3]; 200 mg/kg oral gavage once daily, n=5",Two
same,"Aortic root: Hemorrhage, Minimal","[3]; 200 mg/kg/day, n=5",1
same,"Aortic root: Infiltrate, mixed cell, Minimal","[3]; 200 mg/kg/day, n=5",1
same,"Atrium: Hemorrhage, Minimal","[3]; 200 mg/kg/day, n=5",1
same,"Atrium: Hyperplasia, endothelium, Minimal","[3]; 200 mg/kg/day, n=5",1
same,"Atrium: Infiltrate, mixed cell, Minimal","[3]; 200 mg/kg/day, n=5",2
same,"Atrium: Infiltrate, mixed cell, Slight","[3]; 200 mg/kg/day, n=5",0
same,"Coronary artery: Necrosis with inflammation, Slight","[3]; 200 mg/kg/day, n=5",0
same,"Heart valves: Valvulopathy, Minimal","[3]; 200 mg/kg/day, n=5",1
same,"Heart valves: Valvulopathy, Moderate","[3]; 200 mg/kg/day, n=5",1
same,"Heart valves: Valvulopathy, Slight","[3]; 200 mg/kg/day, n=5",3
same,"Myocardium: Degeneration/necrosis, Minimal","[3]; 200 mg/kg/day, n=5",0
same,"Myocardium: Degeneration/necrosis, Slight","[3]; 200 mg/kg/day, n=5",1
same,"Myocardium: Hemorrhage, Slight","[3]; 200 mg/kg/day, n=5",1
same,"Myocardium: Infiltrate, mixed cell, Slight","[3]; 200 mg/kg/day, n=5",0
same,Mortality,"[3]; 300 mg/kg oral gavage once daily, days 3, 6, or 7, all animals, n=5",sacrificed in a moribund condition or found dead
same,"Aortic root: Hemorrhage, Minimal","[3]; 300 mg/kg/day, n=5",0
same,"Aortic root: Infiltrate, mixed cell, Minimal","[3]; 300 mg/kg/day, n=5",0
same,"Atrium: Hemorrhage, Minimal","[3]; 300 mg/kg/day, n=5",2
same,"Atrium: Hyperplasia, endothelium, Minimal","[3]; 300 mg/kg/day, n=5",3
same,"Atrium: Infiltrate, mixed cell, Minimal","[3]; 300 mg/kg/day, n=5",3
same,"Atrium: Infiltrate, mixed cell, Slight","[3]; 300 mg/kg/day, n=5",1
same,"Coronary artery: Necrosis with inflammation, Slight","[3]; 300 mg/kg/day, n=5",1
same,"Heart valves: Valvulopathy, Minimal","[3]; 300 mg/kg/day, n=5",2
same,"Heart valves: Valvulopathy, Moderate","[3]; 300 mg/kg/day, n=5",0
same,"Heart valves: Valvulopathy, Slight","[3]; 300 mg/kg/day, n=5",3
same,"Myocardium: Degeneration/necrosis, Minimal","[3]; 300 mg/kg/day, n=5",1
same,"Myocardium: Degeneration/necrosis, Slight","[3]; 300 mg/kg/day, n=5",1
same,"Myocardium: Hemorrhage, Slight","[3]; 300 mg/kg/day, n=5",0
same,"Myocardium: Infiltrate, mixed cell, Slight","[3]; 300 mg/kg/day, n=5",1
same,Animals with clear fluid in the thoracic cavity and enlarged thymus (edema),"[3]; 300 mg/kg, found dead on Day 3",one
same,Animals with abnormally-shaped sternum,"[3]; each treatment group, 200 mg/kg or 300 mg/kg",four
same,Bone findings,"[3]; sternum, femur and tibia, higher incidence and/or severity with LY2109761",macroscopic abnormally shaped sternum and microscopic increased thickness of the hypertrophic zone
same,"Heart valve findings, microscopic",[3]; ≥200 mg/kg,valvulopathy
same,Heart weights,[3]; ≥200 mg/kg,Increased heart weights
